Test results reported in US7235674B2, “Substituted coumarins and quinolines and analogs as activators of caspases and inducers of apoptosis and the use thereof” (Cytovia, Inc., priority 2001, dated 2007).

Columns and labels:
[1] = test system: Human breast cancer cell line T-47D; test: Caspase cascade activation assay (N-(Ac-DEVD)-N'-ethoxycarbonyl-R110 fluorogenic substrate) in T-47D cells; type: cell-based; details: for Caspase activity (Ratio) T-47D: ratio of net RFU of test compound to control, 3 h substrate reading
Experimental: (§1) Human breast cancer cell lines T-47D and ZR-75-1 were grown according to media component mixtures designated by American Type Culture Collection +10% FCS (Invitrogen Corporation), in a 5% CO2 −95% humidity incubator at 37° C. T-47D and ZR-75-1 cells were maintained at a cell density between 30 and 80% confluency at a cell density of 0.1 to 0.6×10^6 cells/mL. Cells were harvested at 600×g and resuspended at 0.65×10^6 cells/mL into appropriate media +10% FCS. An aliquot of 45 μl of cells was added to a well of a 96-well microtiter plate containing 5 μl of a 10% DMSO in RPMI-1640 media solution containing 0.16 to 10 μM of 3-cyano-7-methoxy-4-(3-bromo-4,5-dimethoxyphenyl)-2-oxo-2H-chromene (Example 1) or other test compound (0.016 to 1 μM final). An aliquot of 45 μl of cells was added to a well of a 96-well microtiter plate containing 5 μl of a 10% DMSO in RPMI-1640 media solution without test compound as the control sample. The samples were mixed by agitation and then incubated at 37° C. for 24 h in a 5% CO2 −95% humidity incubator. After incubation, the samples were removed from the incubator and 50 μl of a solution containing 20 μM of N-(Ac-DEVD)-N′-ethoxycarbonyl-R110 fluorogenic substrate (SEQ ID NO:1) (Cytovia, Inc.; WO99/18856), 20% sucrose (Sigma), 20 mM DTT (Sigma), 200 mM NaCl (Sigma), 40 mM Na PIPES buffer pH 7.2 (Sigma), and 500 μg/ml lysolecithin (Calbiochem) was added. The samples were mixed by agitation and incubated at room temperature. Using a fluorescent plate reader (Model 1420 Wallac Instruments), an initial reading (T=0) was made approximately 1-2 min after addition of the substrate solution, employing excitation at 485 nm and emission at 530 nm, to determine the background fluorescence of the control sample. After the 3 h incubation, the samples were read for fluorescence as above (T=3 h).
(§2) The Relative Fluorescence Unit values (RFU) were used to calculate the sample readings as follows: RFU(T=3 h)−Control RFU(T=0)=Net RFU(T=3 h)
(§3) The activity of caspase cascade activation was determined by the ratio of the net RFU value for 3-cyano-7-methoxy-4-(3-bromo-4,5-dimethoxy-phenyl)-2-oxo-2H-chromene, or other test compound, to that of control samples. The EC50 (nM) was determined by a sigmoidal dose-response calculation (Prism 2.0, GraphPad Software Inc.).

[2] = test system: Human breast cancer cell line ZR-75-1; test: Caspase cascade activation assay (N-(Ac-DEVD)-N'-ethoxycarbonyl-R110 fluorogenic substrate) in ZR-75-1 cells; type: cell-based; details: for EC50 / maximal fold induction: Homo sapiens; for Caspase activity (Ratio) ZR-75-1: ratio of net RFU of test compound to control, 3 h substrate reading; for maximal fold induction: ZR-75-1, 24 h, read-out: Max efficacy ZR751
Experimental: as §1, §2, §3

[3] = Homo sapiens, T47D, caspase cascade activation potency, T-47D cells, 24 h incubation
[4] = caspase cascade activation potency, ZR-75-1 cells, 24 h incubation
[5] = commercial fused-pyridine compounds, T47D cells
[6] = commercial fused-pyridine compounds, ZR751 cells
[7] = ZR-75-1, commercial fused-pyridine compounds, ZR751 cells
[8] = caspase cascade activation potency, T-47D cells, 24 h incubation

Compound	Caspase activity (Ratio) T-47D ([1]; T-47D cells, 24 h incubation)	EC50 [2, 4] [nM]	Caspase activity (Ratio) ZR-75-1 ([2]; ZR-75-1 cells, 24 h incubation)	EC50 (nM) T47D [1, 5]	Max efficacy T47D [1, 5]	maximal fold induction [2, 6]	EC50 [2, 7] [nM]	other results
COc1cc(OC)cc(-c2c(C#N)c(=O)oc3c2ccc2c3ccn2C)c1 [Example 39, 3-Cyano-4-(3,5-dimethoxy-phenyl)-7-methyl-2-oxo-2H-pyrrolo[2,3-h]chromene]	1.9	20	5.2					EC50 [1, 3]: > 100 nM
COc1ccc(-c2c(C#N)c(N)nc3c2CCc2ccccc2-3)cc1OC [compound 45]				Inactive	Inactive	7	571	
COc1cc(-c2c(C#N)c(=N)oc3cc(N)ccc23)cc(Br)c1OC [Example 26, 7-Amino-4-(3-bromo-4,5-dimethoxy-phenyl)-3-cyano-2-imino-2H-chromene]	1.9	2770	8.8					EC50 (nM) T-47D [1, 8]: Inactive
N#Cc1c(-c2ccccc2)c2ccccc2oc1=N [Example 3, 3-Cyano-2-imino-4-phenyl-2H-chromene]	Inactive		Inactive					EC50 (nM) T-47D [1, 8]: Inactive; EC50 (nM) ZR-75-1 [2, 4]: Inactive
Cn1ccc2c3oc(=O)c(C#N)c(-c4cccc([N+](=O)[O-])c4)c3ccc21 [Example 38, 3-Cyano-7-methyl-4-(3-nitro-phenyl)-2-oxo-2H-pyrrolo[2,3-h]chromene]	1.8	22	5.0					EC50 [1, 3]: > 100 nM
COc1ccccc1-c1c(C#N)c(N)nc2c1CCc1ccccc1-2 [compound 44]						19.2	2040	maximal fold induction ([1]; Homo sapiens, 24 h, commercial fused-pyridine compounds, T47D cells, read-out: Max efficacy T47D): 10.7; EC50 ([1]; Homo sapiens, commercial fused-pyridine compounds, T47D cells): 3120 nM
C=CCNc1nc2nc(N)c(C#N)c(-c3ccc(Br)cc3)c2s1 [compound 48]				Inactive	Inactive	2.9	6040	
COc1ccc(-c2c(C#N)c(N)nc3c2CCCC3C)cc1 (centres unmarked) [compound 49]				Inactive	Inactive	4.8	5710	
